Source: patent publication US20260199325A1, “NOVEL SUBSTITUTED PYRAZINE-CARBOXAMIDE-IMIDAZOPYRIDINE DERIVATIVES” (Boehringer Ingelheim International GmbH, priority 2022, published 2026)

Biological target: T1, human metabotropic Glutamate 4 receptor (Homo sapiens, UniProt Q14833)
T1 construct: expressed in transfected cells; host or cells: HEK293
Test: In vitro testing of mGluR4 potency (Assay A), cAMP HTRF in HEK293 cells
Assay type: cell-based
Conditions: for IC50: HEK293 cell overexpressing human mGluR4, 10 uM L-Glutamic acid, 1 uM forskolin
Procedure: A. In Vitro Testing of mGluR4 Potency
The in vitro activity of the compounds according to the invention may be investigated as follows:
The HEK293 cell overexpressing the human metabotropic Glutamate 4 receptor were thawed at 37° C. and immediately diluted with cell culture medium. After centrifugation, the cell pellet is re-suspended in medium and then distributed from a stirred spinner flask into the wells of the assay plate. The plates are incubated for one hour at room temperature before they are incubated for 24 hours at 37° C./5% C02. After washing the cells in the plate three times with 80 uL HBSS/HEPES buffer (10 uL buffer remained in the wells after washing), 5 uL per well of compounds diluted in HBSS/HEPES buffer containing 0.2% BSA (final concentration: 0.1%) and 1 mM IBMX (final concentration: 0.5 mM) are added to the wells of the assay plate. Thereafter 5 uL per well of L-Glutamic acid (final concentration: 10 uM), forskolin (final concentration: 1 uM) and 1 mM IBMX (final concentration: 0.5 mM) dissolved in HBSS/HEPES buffer containing 0.2% BSA (final concentration: 0.1%) are added to the assay plate (final DMSO concentration: 1%). Several wells of the assay plate are used either for the positive and the negative controls or for the cAMP standard curve. The assay plate is incubated for 30 minutes at room temperature. Then 5 ul per well of Anti-cAMP-Antibody-d2 solution and 5 ul per well of cAMP-Europium Cryptate dilution are added to all wells of the plate and the plate is incubated another 60 minutes light protected at room temperature. The emission at 615 nm and 665 nm (Excitation wavelength: 320 nm) are measured on the EnVision™ reader (PerkinElmer). The ratio between the emission at 665 nm and 615 is calculated by the reader. The whole assay is performed in the dark or under green light.
The cAMP standard is prepared by diluting the cAMP stock solution with HBSS/Hepes buffer: 5 μl/well of the cAMP dilutions (in HBSS/Hepes buffer containing 1 mM IBMX and 0.2% BSA-final concentration: 0.5 mM IBMX and 0.1% BSA) are added to 10 ul/well HBSS/Hepes buffer plus 5 ul/well 4% DMSO in HBSS/Hepes containing 0.2% BSA (final DMSO concentration: 1%-like in the wells containing compounds) in the wells of the assay plate. The final cAMP concentrations in the assay plate were: 0, 0.17, 0.69, 2.78, 11.1, 44.5, 178, and 712 nM (two wells/cAMP concentration).
Each assay microtiter plate contained also wells with vehicle controls instead of compound as controls for L-Glutamic acid induced signal (negative control; 100% CTL; 10 uM L-Glutamic acid+1 uM forskolin+0.5 mM IBMX+1% DMSO) and wells with vehicle controls without L-Glutamic acid as controls for non-specific changes in signal (positive control; 0% CTL; 0 uM L-Glutamic acid+1 uM forskolin+0.5 mM IBMX+1% DMSO).
The analysis of the data is performed by the calculation the ratio between the emission at 665 nm and the emission at 615 nm (Em665/Em615 ratio). Thereafter the signals of the compounds are normalized using the positive and negative controls by the following formula:
PoC=100×((Signal Sample−Positive Control)/(Negative Control−Positive Control))

T1 sequence (Q14833 33-912): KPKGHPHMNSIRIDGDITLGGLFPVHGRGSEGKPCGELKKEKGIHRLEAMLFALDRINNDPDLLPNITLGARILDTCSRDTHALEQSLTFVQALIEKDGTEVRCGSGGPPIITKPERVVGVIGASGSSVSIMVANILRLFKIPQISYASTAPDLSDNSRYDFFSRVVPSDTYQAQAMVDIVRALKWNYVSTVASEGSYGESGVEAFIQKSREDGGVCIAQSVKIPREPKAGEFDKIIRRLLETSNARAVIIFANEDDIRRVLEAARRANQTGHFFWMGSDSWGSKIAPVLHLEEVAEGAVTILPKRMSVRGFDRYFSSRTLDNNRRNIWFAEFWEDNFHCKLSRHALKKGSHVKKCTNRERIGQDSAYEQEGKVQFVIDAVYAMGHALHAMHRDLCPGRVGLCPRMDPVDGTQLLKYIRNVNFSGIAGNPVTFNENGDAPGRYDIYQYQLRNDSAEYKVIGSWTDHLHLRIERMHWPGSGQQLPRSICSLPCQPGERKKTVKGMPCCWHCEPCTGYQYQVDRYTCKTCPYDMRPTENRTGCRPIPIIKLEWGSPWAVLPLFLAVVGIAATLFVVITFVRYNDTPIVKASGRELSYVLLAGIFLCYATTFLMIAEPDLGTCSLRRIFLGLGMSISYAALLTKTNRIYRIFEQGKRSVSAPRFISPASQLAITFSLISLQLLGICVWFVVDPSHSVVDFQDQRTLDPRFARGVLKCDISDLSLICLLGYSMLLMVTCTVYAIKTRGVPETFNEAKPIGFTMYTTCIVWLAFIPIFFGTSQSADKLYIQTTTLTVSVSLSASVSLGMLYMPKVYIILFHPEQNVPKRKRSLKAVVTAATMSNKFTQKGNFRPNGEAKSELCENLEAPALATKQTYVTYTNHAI

Row | Structure (SMILES) | IC50 (Table 2) [nM] | also measured
1 | COc1c(C#N)cnc2c1nc([C@@H](NC(=O)c1cnc(C)cn1)C1CC1)n2C(C)C [Example 31] | 14 | –
2 | COC(C)(C)[C@H](NC(=O)c1cnc(C(F)F)cn1)c1nc2c(C)c(C#N)cnc2n1C(C)C [Example 1, N-[(1R)-1-[6-cyano-7-methyl-3-(propan-2-yl)-3H-imidazo[4,5-b]pyridin-2-yl]-2-methoxy-2-methylpropyl]-5-(difluoromethyl)pyrazine-2-carboxamide] | 1 | –
3 | Cc1nc(C(F)(F)F)cc2c1nc([C@@H](NC(=O)c1cnc(C(F)F)cn1)C1CC1)n2C(C)C [Example 22, N-[(S)-cyclopropyl[4-methyl-1-(propan-2-yl)-6-(trifluoromethyl)-1H-imidazo[4,5-c]pyridin-2-yl]methyl]-5-(difluoromethyl)pyrazine-2-carboxamide] | 10 | –
4 | CO[C@@H](C)[C@H](NC(=O)c1cnc(C)cn1)c1nc2cc(Cl)cnc2n1C(C)C [Example 23, N-[(1R,2S)-1-[6-chloro-3-(propan-2-yl)-3H-imidazo[4,5-b]pyridin-2-yl]-2-methoxypropyl]-5-methylpyrazine-2-carboxamide] | 10 | –
5 | Cc1c(C#N)cnc2c1nc([C@@H](NC(=O)c1cnc(C(F)F)cn1)[C@@H](C)OC(F)F)n2C(C)C [Example 20, N-[(1R,2R)-1-[6-cyano-7-methyl-3-(propan-2-yl)-3H-imidazo[4,5-b]pyridin-2-yl]-2-(difluoromethoxy)propyl]-5-(difluoromethyl)pyrazine-2-carboxamide] | 8 | –
6 | Cc1c(C#N)cnc2c1nc([C@@H](NC(=O)c1cnc(C(F)F)cn1)C1(O)CCC1)n2C(C)C [Example 26, N-[(R)-[6-cyano-7-methyl-3-(propan-2-yl)-3H-imidazo[4,5-b]pyridin-2-yl](1-hydroxycyclobutyl)methyl]-5-(difluoromethyl)pyridazine-2-carboxamide] | 13 | –
7 | Cc1cnc(C(=O)N[C@H](c2nc3c(C)nc(C(F)(F)F)cc3n2C(C)C)C2CC2)cn1 [Example 16, N-[(S)-cyclopropyl[4-methyl-1-(propan-2-yl)-6-(trifluoromethyl)-1H-imidazo[4,5-c]pyridin-2-yl]methyl]-5-methylpyrazine-2-carboxamide] | 13 | –
8 | Cc1c(C#N)cnc2c1nc([C@@H](NC(=O)c1cnc(C(F)F)cn1)C1CCC1)n2C(C)C [Example 7, N-[(S)-[6-cyano-7-methyl-3-(propan-2-yl)-3H-imidazo[4,5-b]pyridin-2-yl](cyclobutyl)methyl]-5-(difluoromethyl)pyrazine-2-carboxamide] | 3 | –
9 | Cn1nccc1C(=O)N[C@H](c1nc2ccc(Br)nc2[nH]1)[C@H]1CC[C@H](C)CC1 [Intermediate 213 in WO2019/138017 (regioisomere 2), reference compound] | – | activity as mGluR4 modulators in Assay A (in words): no therapeutically relevant activity; IC50 (Table 1): 13200 nM
10 | CO[C@H](C)[C@H](NC(=O)c1cnc(C(F)F)cn1)c1nc2cc(C(F)(F)F)cnc2n1C(C)C [Example 24, 5-(difluoromethyl)-N-[(1R)-2-methoxy-1-[3-(propan-2-yl)-6-(trifluoromethyl)-3H-imidazo[4,5-b]pyridin-2-yl]propyl]pyrazine-2-carboxamide] | 10 | –
11 | Cc1c(C#N)cnc2c1nc([C@@H](NC(=O)c1cnc(C(F)F)cn1)C1CC1)n2C(C)C [Example 4, N-[(S)-[6-cyano-7-methyl-3-(propan-2-yl)-3H-imidazo[4,5-b]pyridin-2-yl](cyclopropyl)methyl]-5-(difluoromethyl)pyrazine-2-carboxamide] | 2 | –
12 | Cc1cnc(C(=O)N[C@H](c2nc3cc(Cl)cnc3n2C(C)C)C2(O)CCC2)cn1 [Example 25, N-[(R)-[6-chloro-3-(propan-2-yl)-3H-imidazo[4,5-b]pyridin-2-yl](1-hydroxycyclobutyl)methyl]-5-methylpyrazine-2-carboxamide] | 12 | –
13 | Cc1cnc(C(=O)N[C@H](c2nc3c(C)c(C#N)cnc3n2C(C)C)C2CC2)cn1 [Example 28, N-[(S)-[6-cyano-7-methyl-3-(propan-2-yl)-3H-imidazo[4,5-b]pyridin-2-yl](cyclopropyl)methyl]-5-methylpyrazine-2-carboxamide] | 6 | –
14 | Cc1cnc(C(=O)N[C@H](c2nc3cc(C(F)(F)F)cnc3n2C(C)C)C2CC2)cn1 [Example 3, N-[(S)-cyclopropyl[3-(propan-2-y1)-6-(trifluoromethyl)-3H-imidazo[4,5-b]pyridin-2-y1]methyl]-5-methylpyrazine-2-carboxamide] | 2 | –

The next lines start with results.

Row | IC50 (Table 2) [nM] | Structure (SMILES) | also measured
15 | 33 | CCn1c([C@@H](NC(=O)c2cnc(C)cn2)C2CC2)nc2c(C)nc(C(F)(F)F)cc21 [Example 45, N-[(S)-cyclopropyl[1-ethyl-4-methyl-6-(trifluoromethyl)-1H-imidazo[4,5-c]pyridin-2-yl]methyl]-5-methylpyrazine-2-carboxamide] | –
16 | 80 | Cc1cnc(C(=O)N[C@H](c2nc3cnc(C(F)(F)F)cc3n2C(C)C)[C@@H]2COCCO2)cn1 [Example 50, N-[(R)-[(2R)-1,4-dioxan-2-yl][1-(propan-2-yl)-6-(trifluoromethyl)-1H-imidazo[4,5-c]pyridin-2-yl]methyl]-5-methylpyrazine-2-carboxamide] | –
17 | 21 | Cc1cnc(C(=O)N[C@H](c2nc3cc(Cl)cnc3n2C(C)C)[C@@H]2CCCO2)cn1 [Example 41, N-[(R)-[6-chloro-3-(propan-2-yl)-3H-imidazo[4,5-b]pyridin-2-yl][(2S)-oxolan-2-yl]methyl]-5-methylpyrazine-2-carboxamide] | –
18 | 19 | COC(C)(C)[C@H](NC(=O)c1cnc(C)cn1)c1nc2cccnc2n1C(C)C [Example 37, N-[(1R)-2-methoxy-2-methyl-1-[3-(propan-2-yl)-3H-imidazo[4,5-b]pyridin-2-yl]propyl]-5-methylpyrazine-2-carboxamide] | –
19 | 24 | Cc1cnc(C(=O)N[C@H](c2nc3cnc(C(F)(F)F)cc3n2C(C)C)C2CC2)cn1 [Example 43, N-[(S)-cyclopropyl[1-(propan-2-yl)-6-(trifluoromethyl)-1H-imidazo[4,5-c]pyridin-2-yl]methyl]-5-methylpyrazine-2-carboxamide] | –
20 | 53 | CCn1c([C@@H](NC(=O)c2cnc(C(F)F)cn2)C2CC2)nc2cnc(C(F)(F)F)cc21 [Example 49, N-[(S)-cyclopropyl[1-ethyl-6-(trifluoromethyl)-1H-imidazo[4,5-c]pyridin-2-yl]methyl]-5-(difluoromethyl)pyrazine-2-carboxamide] | –
21 | 15 | Cc1cnc(C(=O)N[C@@H](CC2CC2)c2nc3cc(C#N)c(C)nc3n2C(C)C)cn1 [Example 33, N-[(1S)-1-[6-cyano-5-methyl-3-(propan-2-yl)-3H-imidazo[4,5-b]pyridin-2-yl]-2-cyclopropylethyl]-5-methylpyrazine-2-carboxamide] | –
22 | 26 | Cc1cnc(C(=O)N[C@H](c2nc3cc(F)cnc3n2C(C)C)C2CC2)cn1 [Example 44, N-[(S)-cyclopropyl[6-fluoro-3-(propan-2-yl)-3H-imidazo[4,5-b]pyridin-2-yl]methyl]-5-methylpyrazine-2-carboxamide] | –
23 | 21 | Cc1cnc(C(=O)N[C@H](c2nc3c(C)nc(C(F)(F)F)cc3n2CC(F)F)C2CC2)cn1 [Example 39, N-[(S)-cyclopropyl[1-(2,2-difluoroethyl)-4-methyl-6-(trifluoromethyl)-1H-imidazo[4,5-c]pyridin-2-yl]methyl]-5-methylpyrazine-2-carboxamide] | –
24 | 16 | Cc1cnc(C(=O)N[C@H](c2nc3cc(Cl)cnc3n2C(C)C)[C@H]2CCCO2)cn1 [Example 34, N-[(R)-[6-chloro-3-(propan-2-yl)-3H-imidazo[4,5-b]pyridin-2-yl][(2R)-oxolan-2-yl]methyl]-5-methylpyrazine-2-carboxamide] | –
